The results in this text go back to ChEMBL document CHEMBL1147784, “Crystal structure of human ERK2 complexed with a pyrazolo[3,4-c]pyridazine derivative” (Bioorg Med Chem Lett, 2006).

This experiment deals with Mitogen-activated protein kinase 1 (Homo sapiens, UniProt P28482). The experiment in a line: Inhibitory activity against human ERK2.
Mitogen-activated protein kinase 1, sequence (P28482 whole entry): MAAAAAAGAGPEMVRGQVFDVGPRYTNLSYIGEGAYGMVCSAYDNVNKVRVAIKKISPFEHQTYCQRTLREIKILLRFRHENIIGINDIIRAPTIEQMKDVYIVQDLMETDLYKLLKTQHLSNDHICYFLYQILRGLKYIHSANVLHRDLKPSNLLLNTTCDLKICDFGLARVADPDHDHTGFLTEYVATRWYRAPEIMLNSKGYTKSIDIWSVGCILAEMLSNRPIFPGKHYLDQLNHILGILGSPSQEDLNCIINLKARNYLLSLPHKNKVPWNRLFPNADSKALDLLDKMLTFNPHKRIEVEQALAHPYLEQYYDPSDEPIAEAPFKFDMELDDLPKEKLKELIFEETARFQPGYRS

As usually defined, the IC50 is the concentration that inhibits the measured activity by half. As to `Cn1nc(N)c2cc(-c3c(-c4ccccc4)nn4ccccc34)nnc21`, the IC50 is 1400 nM. That is a single-digit micromolar value. In the case of `C=CCn1nc(N)c2cc(-c3c(-c4ccccc4)nn4ccccc34)nnc21` it was 560 nM; in that of `Nc1nn(CCO)c2nnc(-c3c(-c4ccccc4)nn4ccccc34)cc12`, 5100 nM.
